{"source": "paper PMC3806060", "about": "(Journal of medicinal chemistry, 2013)", "test_system": "H146 small-cell lung cancer cell line", "assay": "Cell growth inhibition assay", "type": "cell-based, Human", "conditions": "for Cellular activity in H146: at 1 μM; for Times less potent than compound 5 in H146 cell growth inhibition: versus 5; for Times less potent than compound 28 in H146 cell growth inhibition: versus 28"}
{"smiles": "Cc1cc(-c2cccc(N3CCN(c4ccc(NS(=O)(=O)c5ccc(N[C@H](CCN(C)C)CSc6ccccc6)c([N+](=O)[O-])c5)cc4)CC3)c2)c(-c2ccc(Cl)cc2)n1C", "note": "[Compound 7]", "values": [{"measurement": "Inhibition of cell growth in H146", "setting": "at concentrations as high as 10 μM", "value": "completely inactive"}]}
{"smiles": "CN(C)CC[C@H](CSc1ccccc1)Nc1ccc(S(=O)(=O)Nc2ccc(N3CCN(c4cccc(-c5c(C(=O)O)c(C(F)(F)F)n(C)c5-c5ccc(Cl)cc5)c4)CC3)cc2)cc1[N+](=O)[O-]", "note": "[Compound 16, (R)-5-(4-Chlorophenyl)-4-(3-(4-(4-(4-(4-(dimethylamino)-1-(phenylthio)butan-2-ylamino)-3-nitrophenylsulfonamido)phenyl)piperazin-1-yl)phenyl)-1-methyl-2-(trifluoromethyl)-1H-pyrrole-3-carboxylic acid]", "values": [{"measurement": "Times less potent than compound 4 in H146 cell growth inhibition", "setting": "versus 4", "value": 8, "unit": "times"}]}
{"smiles": "CN(C)CC[C@H](CSc1ccccc1)Nc1ccc(S(=O)(=O)Nc2ccc(N3CCN(c4cccc(-c5c(C(=O)NS(C)(=O)=O)ncn5-c5ccc(Cl)cc5)c4)CC3)cc2)cc1[N+](=O)[O-]", "note": "[Compound 23, (R)-1-(4-Chlorophenyl)-5-(3-(4-(4-(4-(4-(dimethylamino)-1-(phenylthio)butan-2-ylamino)-3-nitrophenylsulfonamido)phenyl)piperazin-1-yl)phenyl)-N-(methylsulfonyl)-1H-imidazole-4-carboxamide]", "values": [{"measurement": "Cellular activity in H146", "value": "minimal activity"}]}
{"smiles": "CN(C)CC[C@H](CSc1ccccc1)Nc1ccc(S(=O)(=O)Nc2ccc(N3CCN(c4cccc(-c5c(C(=O)NS(C)(=O)=O)cnn5-c5ccc(Cl)cc5)c4)CC3)cc2)cc1[N+](=O)[O-]", "note": "[Compound 24, (R)-1-(4-Chlorophenyl)-5-(3-(4-(4-(4-(4-(dimethylamino)-1-(phenylthio)butan-2-ylamino)-3-nitrophenylsulfonamido)phenyl)piperazin-1-yl)phenyl)-N-(methylsulfonyl)-1H-pyrazole-4-carboxamide]", "values": [{"measurement": "Cellular activity in H146", "value": "minimal activity"}]}
{"smiles": "CN(C)CC[C@H](CSc1ccccc1)Nc1ccc(S(=O)(=O)Nc2ccc(N3CCN(c4cccc(-c5c(C(=O)O)nn(C)c5-c5ccc(Cl)cc5)c4)CC3)cc2)cc1[N+](=O)[O-]", "note": "[Compound 25, (R)-5-(4-Chlorophenyl)-4-(3-(4-(4-(4-(4-(dimethylamino)-1-(phenylthio)butan-2-ylamino)-3-nitrophenylsulfonamido)phenyl)piperazin-1-yl)phenyl)-1-methyl-1H-pyrazole-3-carboxylic acid]", "values": [{"measurement": "Cellular activity in H146", "value": "minimal activity"}]}
{"smiles": "Cc1c(C(=O)O)c(-c2cccc(N3CCN(c4ccc(NS(=O)(=O)c5ccc(N[C@H](CCN(C)C)CSc6ccccc6)c([N+](=O)[O-])c5)cc4)CC3)c2)c(-c2ccc(Cl)cc2)n1C(C)C", "note": "[Compound 28]", "values": [{"measurement": "Times more potent than compound 4 in H146 cell growth inhibition", "setting": "versus 4", "value": 20, "unit": "times"}]}
{"smiles": "CCCn1c(C)c(C(=O)O)c(-c2cccc(N3CCN(c4ccc(NS(=O)(=O)c5ccc(N[C@H](CCN(C)C)CSc6ccccc6)c([N+](=O)[O-])c5)cc4)CC3)c2)c1-c1ccc(Cl)cc1", "note": "[Compound 29, (R)-5-(4-Chlorophenyl)-4-(3-(4-(4-(4-(4-(dimethylamino)-1-(phenylthio)butan-2-ylamino)-3-nitrophenylsulfonamido)phenyl)piperazin-1-yl)phenyl)-2-methyl-1-propyl-1H-pyrrole-3-carboxylic acid]", "values": [{"measurement": "Times less potent than compound 5 in H146 cell growth inhibition", "value": "> 5", "unit": "times"}, {"measurement": "Times less potent than compound 28 in H146 cell growth inhibition", "value": "> 10", "unit": "times"}]}
{"smiles": "CCCCn1c(C)c(C(=O)O)c(-c2cccc(N3CCN(c4ccc(NS(=O)(=O)c5ccc(N[C@H](CCN(C)C)CSc6ccccc6)c([N+](=O)[O-])c5)cc4)CC3)c2)c1-c1ccc(Cl)cc1", "note": "[Compound 30, (R)-1-Butyl-5-(4-chlorophenyl)-4-(3-(4-(4-(4-(4-(dimethylamino)-1-(phenylthio)butan-2-ylamino)-3-nitrophenylsulfonamido)phenyl)piperazin-1-yl)phenyl)-2-methyl-1H-pyrrole-3-carboxylic acid]", "values": [{"measurement": "Times less potent than compound 5 in H146 cell growth inhibition", "value": "> 5", "unit": "times"}, {"measurement": "Times less potent than compound 28 in H146 cell growth inhibition", "value": "> 10", "unit": "times"}]}
